Measurements published in article PMC7999182, “Interaction of Remdesivir with Clinically Relevant Hepatic Drug Uptake Transporters” (Pharmaceutics, 2021).
pIC50: −log10 of the molar value.

Legend:
OATP1B3 [1] = test system: OATP1B3; set-up: method as in earlier work; settings: prototypic substrate not stated; cited from earlier work
OATP1B3 [2] = target: T1, OATP1B3 (Homo sapiens, UniProt Q9NPD5); test: Remdesivir uptake into HEK cells stably expressing OATP1B3 vs vector control; assay type: in vitro ADME; settings: 5 µM remdesivir, 10 min, transporter-expressing vs control HEK cells
T1 construct: expressed in transfected cells
T1 sequence (Q9NPD5 1-702): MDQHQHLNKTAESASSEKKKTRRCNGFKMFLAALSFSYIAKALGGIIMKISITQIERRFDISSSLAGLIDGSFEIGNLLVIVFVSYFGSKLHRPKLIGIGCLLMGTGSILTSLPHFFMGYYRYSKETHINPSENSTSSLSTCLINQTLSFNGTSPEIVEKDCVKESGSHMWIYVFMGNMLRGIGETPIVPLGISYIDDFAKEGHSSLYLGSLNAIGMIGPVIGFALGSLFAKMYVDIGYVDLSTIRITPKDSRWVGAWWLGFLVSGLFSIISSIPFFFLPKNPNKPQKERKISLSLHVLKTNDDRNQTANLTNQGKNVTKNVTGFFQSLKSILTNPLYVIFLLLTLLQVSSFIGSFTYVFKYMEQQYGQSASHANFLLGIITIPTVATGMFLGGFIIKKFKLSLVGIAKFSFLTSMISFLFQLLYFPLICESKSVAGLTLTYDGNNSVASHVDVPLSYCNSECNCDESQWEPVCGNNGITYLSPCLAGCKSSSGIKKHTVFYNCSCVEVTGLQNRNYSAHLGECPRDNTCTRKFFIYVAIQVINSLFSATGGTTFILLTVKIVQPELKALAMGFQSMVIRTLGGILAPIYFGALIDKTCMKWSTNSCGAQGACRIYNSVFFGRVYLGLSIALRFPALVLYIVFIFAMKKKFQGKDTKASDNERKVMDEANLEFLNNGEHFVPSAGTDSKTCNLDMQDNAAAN
From the text: (§1) Generation, cultivation and characterization of human embryonic kidney (HEK) cells stably expressing OATP1B1 refseq (=OATP1B1*1a), OATP1B1*1b, OATP1B1*5 and OATP1B1*15 [18], OATP1B3 [19], OATP2B1 [13] and OCT1 [20] have been described previously. OATP1B1 cells were cultivated in minimal essential medium (Life Technologies, Paisley, UK) and OATP1B3, OATP2B1 and OCT1 cells were cultivated in Dulbecco’s modified Eagle medium (Sigma, Darmstadt, Germany). Cultivation media were supplemented with 10% fetal calf serum, 100 U/mL penicillin and 100 µg/mL streptomycin. Cells were grown at 37 °C and 5% CO2. Functionality of the cells was confirmed by measuring uptake of prototypic substrates (see Section 2.3 and supplementary material).
Uptake assays were conducted at 37 °C according to previously described methods. For this, cells were seeded in 24-well plates (320,000 cells/well) and cultured for 2 days. Cells were then incubated for a further 24 h in culture medium with 5 mM butyrate (OATP1B3, OATP2B1, OCT1) or 10 mM butyrate (OATP1B1) to increase protein levels of recombinant transporters. […]
Remdesivir was determined by UHPLC-MS-MS analysis on an Agilent 1290 infinity UHPLC system coupled to an Agilent 6495B triple quadrupole mass spectrometer (Agilent, Waldbronn, Germany) similar to a recently published method. […]

[3] = cited from earlier work
OATP1B3 [4] = target: T1, OATP1B3; test: Inhibition of OATP1B3-mediated estradiol glucuronide uptake; assay type: cell-based
From the text: as §1
Prototypic substrate uptake was performed as described previously. For this, uptake solutions contained the respective substrate with tracer amounts of radiolabeled substrate. In case of inhibition studies, uptake solutions additionally contained different concentrations of remdesivir. […] Cells were then lysed with 0.2% sodium dodecyl sulfate and intracellular radioactivity was measured by liquid scintillation counting (Tricarb2800, PerkinElmer Life Sciences GmbH, Rodgau, Germany or Hidex 300SL TDCR liquid scintillation counter, Turku, Finland). […]

**Q.** With CCC(CC)COC(=O)[C@H](C)N[P@](=O)(OC[C@H]1O[C@@](C#N)(c2ccc3c(N)ncnn23)[C@H](O)[C@@H]1O)Oc1ccccc1 [Remdesivir] as the molecule, how does the pIC50 (OATP1B3 [1]) read?
**A.** 5.68

**Q.** What about the Remdesivir uptake ratio (OATP1B3 [2]) of the same molecule?
**A.** 1.5

**Q.** What about the peak plasma concentration ([3]; 30 min after iv administration of 200 mg remdesivir for 30 min) of the same molecule?
**A.** ~10 µM

**Q.** What about the t1/2 [3] of the same molecule?
**A.** 1 h

**Q.** What about the Cmax ([3]; intravenous 100 mg remdesivir, healthy adults) of the same molecule?
**A.** 3.7 µM

**Q.** What about the “Effect on prototypic substrate uptake” value (OATP1B3 [4]; 5 µM estradiol glucuronide, 5 min uptake, different remdesivir concentrations) of the same molecule?
**A.** significant concentration-dependent inhibitory effect

**Q.** What about the “Transporter inhibition at 10 µM” value (OATP1B3 [4]; 10 µM remdesivir, estradiol glucuronide as substrate) of the same molecule?
**A.** inhibition
